In PMC6173055, “Structure and function of a glycoside hydrolase family 8 endoxylanase from Teredinibacter turnerae” (Acta Crystallographica. Section D, Structural Biology, 2018):

Target: T1, TtGH8 (Teredinibacter turnerae, UniProt C5BJ89)
T1 construct: gene TERTU_4506; catalytic domain, residues 41-436; signal peptide and linker removed; N-terminal His6 tag cut off with 3C protease; codon-optimised, expressed in E. coli BL21
Assay: thermal shift (SYPRO Orange)
Format: binding
Settings: 10 mM ligand

T1 sequence (C5BJ89 entry or part of it): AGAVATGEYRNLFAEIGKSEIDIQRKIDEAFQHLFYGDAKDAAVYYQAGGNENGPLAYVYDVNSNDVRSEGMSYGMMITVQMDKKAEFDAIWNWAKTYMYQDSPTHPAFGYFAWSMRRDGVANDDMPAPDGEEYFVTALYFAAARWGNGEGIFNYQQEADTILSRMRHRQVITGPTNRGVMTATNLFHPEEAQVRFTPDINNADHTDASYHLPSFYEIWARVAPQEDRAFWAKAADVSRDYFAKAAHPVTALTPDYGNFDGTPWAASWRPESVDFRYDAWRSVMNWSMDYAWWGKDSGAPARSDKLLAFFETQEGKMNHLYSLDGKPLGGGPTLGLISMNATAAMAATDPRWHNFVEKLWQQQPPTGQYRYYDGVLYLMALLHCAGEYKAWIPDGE

increase in melting temperature: 2.9 °C
Compound: OC1OC[C@@H](O[C@@H]2OC[C@@H](O[C@@H]3OC[C@@H](O[C@@H]4OC[C@@H](O[C@@H]5OC[C@@H](O[C@@H]6OC[C@@H](O)[C@H](O)[C@H]6O)[C@H](O)[C@H]5O)[C@H](O)[C@H]4O)[C@H](O)[C@H]3O)[C@H](O)[C@H]2O)[C@H](O)[C@H]1O (stereo partly shown) [X6, xylohexaose]
